Results taken from US9394539B1, “Survival motor neuron gene (SMN2) mRNA constructs for post-transcription regulation” (PTC Therapeutics, Inc., priority 2007, dated 2016).

Columns and labels:
[1] = tested on: 5′-UTR and 3′-UTR of the target SMN2 mRNA; experiment: Luciferase reporter gene screening assay in stable 293H cells (fLuc flanked by SMN2 5′-UTR and 3′-UTR); assay type: cell-based, human; conditions: 7.5 μM test concentration, 24 hours, vs negative control (0.5% DMSO)
Method: Stable 293H cell lines containing the firefly luciferase (fLuc) gene flanked by one of SMN1 or SMN2 5′-UTR and 3′-UTR were cultured in DMEM medium supplemented with 10% FBS and 200 ug/mL hygromycin in Fisher T175 flasks. The cells were passaged every 4 days at 1:10 dilution. Cultures are kept in a 37° C. and 5% CO2 incubator. The cells were scaled-up over a three day period before performing the assay. Two confluent T175 flasks were split into twenty T175 flasks (1:10 dilution). Cells were harvested from each confluent flask by removing all of the media and adding 4 mL of warmed trypsin to dislodge the cells. After the cells were dislodged, 16 mL of selective media was added for a final volume of 20 mL. The cells were expanded by adding 2 mL of the harvested cells into ten new T175 flasks plus 25 ml, of selective media. The twenty new flasks are placed into the 37° C., 5% CO2 incubator. On the day the assay was performed, the media was removed from the flasks and 3 mL of warmed trypsin was added to dislodge the cells. After the cells were dislodged, 10 mL of nonselective media was to the flask. This was repeated for all twenty flasks and combined into one flask. 100 μL of the above cell culture plus 100 μL of Trypan Blue stain was counted on a hemocytometer. Cells were plated in the presence of 2 μL of a compound to be tested (at final concentration of 7.5 μM with 0.5% DMSO).
The firefly luciferase substrate used was Luc Lite Plus Packard #6016969. Luciferase activity was immediately assayed using a ViewLux Imaging system (Perkin Elmer).
The screening assay was performed by preparing a plates containing test compounds and controls, including wells that contained only vehicle or a high inhibitor concentration and wells that provided an 8-point dose response curve of puromycin, a non-specific standard control inhibitor. The cells were grown overnight in the presence of compounds or controls at 37° C. in 5% CO2. […] After 24 hours, the amount of luminescence was determined using a ViewLux Imaging system (Perkin Elmer). […]

[2] = CellTiter-Glo cytotoxicity assay, MC-IXC cells; assay type: cell-based; conditions: human, MC-IXC neuroblastoma cells, CellTiter-Glo (ATP)
Method: (§1) To evaluate cytotoxicity of the compounds in the neuroblastoma MC-IXC cell line, the CellTiter-Glo assay (Promega) was utilized. CellTiter-Glo determines the number of viable cells in culture based on quantification of the ATP present, which signals the presence of metabolically active cells. A reduction in cellular ATP is indicative of a cytotoxic or cytostatic effect. The compounds are tested in a 7-point dose response from 30 μM to 0.38 μM. Doxorubicin, a known cytotoxic compound, are used to address the sensitivity of the tested cell line. For relatively sensitive cell lines, such as U937 (a human monocyte cell line), the CC50 of doxorubicin ranges from 4 to 10 nM.

[3] = CellTiter-Glo cytotoxicity assay, U937 cells; assay type: cell-based; conditions: human, U937 monocyte cells, relatively sensitive cell line
Method: as §1

[4] = CellTiter-Glo cytotoxicity assay, Huh7 cells; assay type: cell-based; conditions: human, Huh7 hepatoblastoma cells, intermediate level of sensitivity

In the case of `Cc1ccc2nc(-c3ccc(/N=C/c4ccc(Br)s4)cc3)sc2c1` [Cpd 1, (E)-N-((5-bromothiophen-2-yl)methylene)-4-(6-methylbenzo[d]thiazol-2-yl)aniline], the “Ratio (fold increase in target mRNA (SMN2) compared to negative control)” value [1] is reported as “* (one star (*) represents active compounds with a fold increase ratio in a range greater than 1.3 up to 1.6)”.
With `CC(C)(C)C(C)(O)C#Cc1ccccc1` (stereo not drawn) [Cpd 2, 3,4,4-trimethyl-1-phenylpent-1-yn-3-ol] the “Ratio (fold increase in target mRNA (SMN2) compared to negative control)” value [1] was “** (two stars (**) represent active compounds with a fold increase ratio in a range greater than 1.6 up to 1.8)”.
In the case of `c1ccc(-n2ncc3c(NC4CCCCC4)ncnc32)cc1` [Cpd 4, N-cyclohexyl-1-phenyl-1H-pyrazolo[3,4-d]pyrimidin-4-amine], the “Ratio (fold increase in target mRNA (SMN2) compared to negative control)” value [1] is reported as “** (two stars (**) represent active compounds with a fold increase ratio in a range greater than 1.6 up to 1.8)”.
With `COc1cccc2c1C(=O)c1c(O)c3c(c(O)c1C2=O)C[C@@](O)(C(=O)CO)C[C@@H]3O[C@H]1C[C@H](N)[C@H](O)[C@H](C)O1` [doxorubicin] the CC50 [2] was 12 nM, the CC50 [3] was 4 to 10 nM and the CC50 [4] was 70 to 300 nM.
